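Dose response: 5 concentrations. Exposure: 48 h. Format: 96-well plates. Endpoint: linear interpolation; highest concentration if not reached. At the GI50, growth is halved.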 Active and inactive are the calls of the source. Rule as the data show it: active = GI50 up to about 1.1 µM and inactive = higher.
How the values were obtained:
Test in all cases: growth of human tumour cells (NCI), 48 h
MDA-N = system: MDA-N
SNB-19 = system: SNB-19
SW-620 = system: SW-620
T47D = system: T47D
CCRF-CEM = system: CCRF-CEM
UO-31 = system: UO-31
CAKI-1 = system: CAKI-1
SF-295 = system: SF-295
NCI-H23 = system: NCI-H23
NCI-H522 = system: NCI-H522
HCT-116 = system: HCT-116
COLO 205 = system: COLO 205
UACC-257 = system: UACC-257
NCI-H460 = system: NCI-H460
Hs-578T = system: Hs-578T
SK-OV-3 = system: SK-OV-3
M14 = system: M14
LOX IMVI = system: LOX IMVI
HOP-92 = system: HOP-92
SNB-75 = system: SNB-75

Measured: GI50

CCCCOC(=O)Nc1ccc(S(=O)(=O)Nc2ccccc2Cl)cc1
inactive: MDA-N 17.6 µM | SNB-19 22.6 µM | SW-620 14.1 µM | T47D 26.5 µM | CCRF-CEM 19.2 µM | UO-31 25.6 µM | CAKI-1 19.5 µM | SF-295 17.3 µM | NCI-H23 25.6 µM | NCI-H522 18.5 µM | HCT-116 22.4 µM | COLO 205 20.7 µM | UACC-257 31.3 µM | NCI-H460 18.2 µM | Hs-578T 21.5 µM | SK-OV-3 16.8 µM | M14 19.8 µM | LOX IMVI 18.1 µM | HOP-92 13.7 µM

Cc1cc2c(=O)[nH]nc(N)c2c(N)n1
inactive: MDA-N > 100 µM | SNB-19 > 100 µM | SW-620 > 100 µM | T47D > 100 µM | CCRF-CEM > 100 µM | UO-31 > 100 µM | CAKI-1 > 100 µM | SF-295 > 100 µM | NCI-H23 > 100 µM | NCI-H522 > 100 µM | HCT-116 > 100 µM | COLO 205 > 100 µM | UACC-257 > 100 µM | NCI-H460 > 100 µM | Hs-578T > 100 µM | SK-OV-3 > 100 µM | M14 > 100 µM | LOX IMVI > 100 µM | HOP-92 > 100 µM

COCN1C(=O)[C@@H]2CCCN2C(=O)c2cc(OC)c(Cc3ccccc3)cc21
inactive: MDA-N > 100 µM | SNB-19 > 100 µM | SW-620 > 100 µM | T47D 43.3 µM | UO-31 57 µM | CAKI-1 > 100 µM | SF-295 > 100 µM | NCI-H23 > 100 µM | NCI-H522 83.9 µM | HCT-116 62.4 µM | UACC-257 > 100 µM | Hs-578T > 100 µM | SK-OV-3 > 100 µM | M14 > 100 µM | LOX IMVI > 100 µM | SNB-75 60.4 µM

COc1ccc(-c2c(C#N)c(S)n(NS(=O)(=O)c3ccccc3)c(=O)c2C#N)cc1
inactive: MDA-N 45.6 µM | SNB-19 > 100 µM | SW-620 40.9 µM | T47D 36.1 µM | CCRF-CEM 24.3 µM | UO-31 65 µM | CAKI-1 > 72.8 µM | SF-295 77.3 µM | NCI-H23 75.2 µM | NCI-H522 26.4 µM | HCT-116 37.9 µM | COLO 205 58.1 µM | UACC-257 80.9 µM | NCI-H460 48.5 µM | Hs-578T 49 µM | SK-OV-3 > 100 µM | M14 58.6 µM | LOX IMVI 35.9 µM | SNB-75 > 100 µM

Cc1cc(S(=O)(=O)n2ccnc2Oc2cccc(Cl)c2)c(SSc2cc(Cl)c(C)cc2S(=O)(=O)n2ccnc2Oc2cccc(Cl)c2)cc1Cl
inactive: MDA-N 8.38 µM | SW-620 11.7 µM | T47D 2.98 µM | CCRF-CEM 2.81 µM | UO-31 5.96 µM | CAKI-1 10.9 µM | SF-295 4.19 µM | NCI-H23 6.32 µM | HCT-116 6.19 µM | COLO 205 2.57 µM | UACC-257 8.09 µM | NCI-H460 7.8 µM | Hs-578T 4.19 µM | SK-OV-3 12.4 µM | M14 7.89 µM | LOX IMVI 30 µM | SNB-75 7.59 µM | HOP-92 4.39 µM

CCOC(=O)c1ccc(C(=O)C(C(C)=O)C(=O)OC(C)(C)C)n1C (centres undefined)
inactive: MDA-N > 100 µM | SNB-19 > 100 µM | SW-620 > 100 µM | T47D > 100 µM | CCRF-CEM 71.3 µM | UO-31 > 100 µM | CAKI-1 > 100 µM | SF-295 > 100 µM | NCI-H23 > 100 µM | NCI-H522 > 100 µM | HCT-116 > 100 µM | COLO 205 > 100 µM | UACC-257 > 100 µM | NCI-H460 > 100 µM | Hs-578T > 100 µM | SK-OV-3 > 100 µM | M14 > 100 µM | LOX IMVI > 100 µM | SNB-75 78.5 µM

CCN(CC)C1Oc2cc3c(cc2C(c2cccc(OC)c2O)C1C)OCO3 (centres undefined)
inactive: MDA-N 1.7 µM | SNB-19 3.76 µM | SW-620 4.33 µM | T47D 14.5 µM | CCRF-CEM 3.94 µM | UO-31 9.38 µM | CAKI-1 5.6 µM | SF-295 3.08 µM | NCI-H23 5.79 µM | NCI-H522 2.41 µM | HCT-116 4.28 µM | COLO 205 3.03 µM | UACC-257 7.6 µM | NCI-H460 4.24 µM | Hs-578T 2.51 µM | SK-OV-3 4.99 µM | M14 2.98 µM | LOX IMVI 4.31 µM | SNB-75 2.81 µM

Nc1ccc(/C=C/c2ccc3cccnc3c2)cc1
inactive: MDA-N > 100 µM | SNB-19 > 100 µM | SW-620 > 100 µM | T47D 92.9 µM | CCRF-CEM > 100 µM | UO-31 > 100 µM | CAKI-1 90.8 µM | SF-295 > 100 µM | NCI-H23 > 100 µM | HCT-116 > 100 µM | COLO 205 > 100 µM | UACC-257 > 100 µM | NCI-H460 > 100 µM | Hs-578T > 100 µM | SK-OV-3 > 100 µM | M14 > 100 µM | LOX IMVI > 100 µM | SNB-75 > 100 µM | HOP-92 > 100 µM

CSc1cc(Cl)c(C)cc1S(=O)(=O)NC(=O)NNc1cnc2ccccc2n1
inactive: MDA-N > 100 µM | SNB-19 > 100 µM | SW-620 > 100 µM | T47D > 100 µM | CCRF-CEM > 100 µM | CAKI-1 > 100 µM | SF-295 > 100 µM | NCI-H522 > 100 µM | HCT-116 > 100 µM | COLO 205 > 100 µM | NCI-H460 > 100 µM | Hs-578T > 100 µM | SK-OV-3 > 100 µM | M14 > 100 µM | LOX IMVI > 100 µM

[O-][S+](c1ccc(Cl)cc1)c1ccccc1C1=NCCN1 (centres undefined)
inactive: MDA-N > 100 µM | SNB-19 > 100 µM | SW-620 > 100 µM | T47D > 100 µM | CCRF-CEM > 100 µM | UO-31 > 100 µM | CAKI-1 > 100 µM | SF-295 > 100 µM | NCI-H23 > 100 µM | NCI-H522 > 100 µM | HCT-116 > 100 µM | COLO 205 > 100 µM | UACC-257 > 100 µM | NCI-H460 > 100 µM | Hs-578T > 100 µM | SK-OV-3 > 100 µM | M14 > 100 µM | SNB-75 > 100 µM

CCOC(=O)c1ccc2c(c1)Cc1cc([N+](=O)[O-])ccc1-2
inactive: MDA-N 48 µM | SNB-19 > 100 µM | SW-620 65.2 µM | T47D 87.1 µM | CCRF-CEM 61.2 µM | UO-31 30.4 µM | CAKI-1 36.6 µM | SF-295 23.1 µM | NCI-H23 32.4 µM | HCT-116 59.4 µM | COLO 205 23.2 µM | UACC-257 48.1 µM | NCI-H460 50.9 µM | Hs-578T 48.9 µM | SK-OV-3 29.6 µM | M14 97.1 µM | LOX IMVI 41.2 µM | HOP-92 26.1 µM

— ChEMBL document CHEMBL1201862, “PubChem BioAssay data set” (2004)
